Data on one compound can be found in US20210208130A1, “ASSAYS FOR CELL-BASED THERAPIES OR TREATMENTS” (The Regents of the University of California, priority 2018, published 2021).

For this assay, the system named is Human Retinoblastoma (hRB) Y79 (ATCC HTB-18) cells. As to the kind of experiment: Fluorescence-based (CellTiter-Blue, resazurin) cell viability potency assay with sodium butyrate insult. To be noted: 2, 4, 8 mM sodium butyrate; 72 hours incubation. The text has this: In the following examples, Human Retinoblastoma (hRB) Y79 (ATCC® HTB-18™) cells were expanded and maintained for use by culturing in ATCC®-formulated RPMI-1640 medium supplemented with 20% fetal bovine serum. The cells were maintained according to ATCC® recommendations. Human retinal progenitor cells (hRPCs) and human retinal pigment epithelium cells (hRPE cells) were isolated from 18-20 week human fetuses and propagated in standard medium (SM) comprising Advanced DMEM/F12 with 1×N−2 supplement, 1×GlutaMax-1, 20 ng/ml human FGF-basic protein and 20 ng/ml human EGF protein.
In the following experiments, conditioned medium (CM) was collected from hRPCs, hRB cells or hRPE grown in SM for 48 hours (with replacement of the SM after 24 hours). Cells were harvested and counted after each CM collection.
First, 12.5×10^3, 2.5×10^4, 5.0×10^4, 1.0×10^5 and 2.0×10^5 Human Retinoblastoma (hRB) Y79 (ATCC® HTB-18™) cells were plated in five separate wells of a 96 well assay plate and incubated in 50 μl SM. […] Resorufin is highly fluorescent, meaning that the fluorescence signal generated can be used to determine the viability of the cells incubated with Resazurin.
The fluorescence of each well was measured after incubation with resazurin. Fluorescence signals were read at an excitation wavelength of 520 nm and an emission wavelength of 580-640 nm. […]
On the technique in general: The colour change of resazurin is a common sign of viable cells or microbes.

Take `CCCC(=O)[O-].[Na+]` [sodium butyrate]: the “fluorescence signal (cell proliferation and viability) with higher concentrations of sodium butyrate” value was “decreased fluorescence signals”.
